Reference: the supplement of paper PMC10307832

How the values were obtained:
Test in all cases: relative viability (nuclei count vs DMSO), 5 days (fraction); higher = more cells survive
[1] = compound: CC1(C)CCC(CN2CCN(c3ccc(C(=O)NS(=O)(=O)c4ccc(NCC5CCOCC5)c([N+](=O)[O-])c4)c(Oc4cnc5[nH]ccc5c4)c3)CC2)=C(c2ccc(Cl)cc2)C1 [Venetoclax] + Cc1cc(Nc2cc(N3CCN(C)CC3)nc(Sc3ccc(NC(=O)C4CC4)cc3)n2)n[nH]1 [Tozasertib] (partner 0.1 µM)
Outline: (§1)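 One day after seeding in 1536-well plates, lung cancer cell lines were dosed by pin tool. Dosing was either single-drug or a fixed anchor-drug dose plus five library-drug doses (not always all listed) in √10 steps. After 5 days, nuclei were stained in one fix-and-stain step and counted on 4× images, and relative viability is the nuclei count of treated wells over that of vehicle wells, given as the median of duplicate plates.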

[2] = compound: CC1(C)CCC(CN2CCN(c3ccc(C(=O)NS(=O)(=O)c4ccc(NCC5CCOCC5)c([N+](=O)[O-])c4)c(Oc4cnc5[nH]ccc5c4)c3)CC2)=C(c2ccc(Cl)cc2)C1 [Venetoclax] + NC(=O)Nc1cc(-c2cccc(F)c2)sc1C(=O)N[C@H]1CCCNC1 [AZD7762] (partner 0.2 µM)
Outline: as §1

[3] = compound: CC1(C)CCC(CN2CCN(c3ccc(C(=O)NS(=O)(=O)c4ccc(NCC5CCOCC5)c([N+](=O)[O-])c4)c(Oc4cnc5[nH]ccc5c4)c3)CC2)=C(c2ccc(Cl)cc2)C1 [Venetoclax] + COc1cccc2cc(-c3nc([C@H]4CC[C@H](C(=O)O)CC4)n4ncnc(N)c34)[nH]c12 [OSI-027] (partner 0.5 µM)
Outline: as §1

[4] = compound: Cn1cnc2c(F)c(Nc3ccc(Br)cc3Cl)c(C(=O)NOCCO)cc21 [Selumetinib] + Cc1nc(NC(=O)N2CCC[C@H]2C(N)=O)sc1-c1ccnc(C(C)(C)C(F)(F)F)c1 [Alpelisib] (partner 2 µM)
Outline: as §1

Cell Line	relative viability ([1]; first compound 0.01 µM)	relative viability ([1]; first compound 0.03162 µM)	relative viability ([1]; first compound 0.1 µM)	relative viability ([1]; first compound 0.3162 µM)	relative viability ([1]; first compound 1 µM)	relative viability ([2]; first compound 0.01 µM)	relative viability ([2]; first compound 0.03162 µM)	relative viability ([2]; first compound 0.1 µM)	relative viability ([2]; first compound 0.3162 µM)	relative viability ([2]; first compound 1 µM)	relative viability ([3]; first compound 0.01 µM)	relative viability ([3]; first compound 0.03162 µM)	relative viability ([3]; first compound 0.1 µM)	relative viability ([3]; first compound 0.3162 µM)	relative viability ([3]; first compound 1 µM)	relative viability ([4]; first compound 0.02 µM)	relative viability ([4]; first compound 0.06325 µM)	relative viability ([4]; first compound 0.2 µM)	relative viability ([4]; first compound 0.6325 µM)
HCC-366	0.094	0.119	0.123	0.0769	0.0514	0.332	0.202	0.214	0.25	0.141	0.873	0.958	0.628	0.95	0.573	0.361	0.273	0.196	0.158
HCC-78	0.349	0.454	1.29	0.404	0.497	0.667	0.818	0.738	0.577	0.539	0.4	0.387	0.35	0.347	0.371	0.286	0.321	0.219	0.298
HCC-827	0.417	0.413	0.4	0.416	0.385	0.27	0.258	0.302	0.224	0.183	0.799	0.839	0.776	0.733	0.755	0.961	0.786	0.863	0.791
NCI-H1437	0.392	0.426	0.408	0.376	0.336	1.14	1.14	1.11	1.08	1.07	0.942	0.888	0.845	0.763	0.802	0.914	0.855	0.292	0.206
PC-14	0.646	0.601	0.576	0.553	0.531	0.346	0.361	0.315	0.413	0.301	0.735	0.875	0.696	0.855	0.722	0.92	0.835	0.925	0.848
BEN	0.426	0.476	0.373	0.476	0.38	0.771	0.746	0.611	0.836	0.637	0.291	0.295	0.289	0.281	0.281	1.02	0.932	0.861	0.886
LOU-NH91	0.652	0.697	0.576	0.684	0.604	0.766	0.8	0.723	0.777	0.63	0.674	0.762	0.726	0.755	0.673	0.648	0.6	0.577	0.586
EKVX	0.403	0.392	0.435	0.324	0.309	0.698	0.766	0.743	0.695	0.671	0.668	0.731	0.646	0.76	0.63	0.678	0.711	0.61	0.448
NCI-H1355	0.548	0.62	0.482	0.549	0.42	0.723	0.733	0.705	0.716	0.652	0.409	0.5	0.38	0.386	0.355	0.77	0.791	0.591	0.444
ABC-1	0.16	0.17	0.178	0.156	0.219	0.631	0.955	0.929	0.888	0.878	0.569	0.536	0.444	0.488	0.442	0.826	0.743	0.852	0.643
NCI-H727	0.765	0.61	0.496	0.58	0.58	0.592	0.769	0.423	0.648	0.604	0.68	0.762	0.525	0.63	0.723	0.309	0.225	0.253	0.202
NCI-H1666	0.706	0.589	0.623	0.622	0.587	0.915	0.849	0.715	0.839	0.803	0.699	0.843	0.839	0.733	0.784	0.701	0.721	0.478	0.551
NCI-H2126	0.822	0.791	0.867	0.86	0.759	1.06	1.01	0.932	1.02	1	0.691	0.794	0.719	0.692	0.636	0.679	0.675	0.58	0.532
NCI-H1793	0.227	0.347	0.321	0.297	0.237	0.638	0.441	0.346	0.299	0.259	0.299	0.37	0.207	0.239	0.186	0.786	0.646	0.41	0.452
LCLC-103H	0.575	0.396	0.36	0.51	0.454	0.837	0.737	0.809	0.817	0.734	0.5	0.492	0.502	0.404	0.404	0.851	0.917	0.841	0.874
HARA	0.0626	0.109	0.0841	0.116	0.106	0.299	0.214		0.25	0.285	0.427	0.571	0.452	0.427	0.362	0.701	0.647	0.549	0.353

Cell Line	relative viability ([1]; first compound 0.01 µM)	relative viability ([1]; first compound 0.03162 µM)	relative viability ([1]; first compound 0.1 µM)	relative viability ([1]; first compound 0.3162 µM)	relative viability ([1]; first compound 1 µM)	relative viability ([2]; first compound 0.01 µM)	relative viability ([2]; first compound 0.03162 µM)	relative viability ([2]; first compound 0.1 µM)	relative viability ([2]; first compound 0.3162 µM)	relative viability ([2]; first compound 1 µM)	relative viability ([3]; first compound 0.01 µM)	relative viability ([3]; first compound 0.03162 µM)	relative viability ([3]; first compound 0.1 µM)	relative viability ([3]; first compound 0.3162 µM)	relative viability ([3]; first compound 1 µM)	relative viability ([4]; first compound 0.02 µM)	relative viability ([4]; first compound 0.06325 µM)	relative viability ([4]; first compound 0.2 µM)	relative viability ([4]; first compound 0.6325 µM)
LXF-289	0.217	0.218	0.187	0.216	0.213	1.19	1.06	1.02	1.06	1.01	0.753	0.857	0.881	0.771	0.623	0.928	0.854	0.841	0.762
NCI-H2347	0.581	0.634	0.476	0.597	0.541	0.729	0.894	0.663	0.723	0.76	0.32	0.417	0.377	0.485	0.372	0.832	0.613	0.445	0.387
RERF-LC-KJ	0.444	0.504	0.533	0.45	0.443	0.801	1.09	1.07	1.03	0.945	0.555	0.552	0.577	0.577	0.521	0.858	0.772	0.693	0.636
NCI-H596	1.05	0.74	0.966	0.862	0.847	1.12	0.975	1.27	1.12	1.2	0.704	0.748	0.694	0.748	0.587	0.548	0.43	0.353	0.162
NCI-H1734	0.275	0.241	0.216	0.269	0.239	0.529	0.671	0.474	0.665	0.571	0.616	0.568	0.515	0.57	0.542	0.638	0.66	0.587	0.596
NCI-H1915	0.452	0.454	0.392	0.433	0.427	0.657	0.658	0.655	0.695	0.611	0.587	0.624	0.596	0.612	0.586	1.02	0.936	0.692	0.49
NCI-H838	0.254	0.246	0.303	0.238	0.239	0.93	0.999	0.877	0.923	0.837	0.493	0.405	0.37	0.377	0.435	0.847	0.81	0.807	0.704
HCC-15	0.45	0.47	0.371	0.324	0.273	1.29	1.28	1.15	1.16	1.36	0.653	0.67	0.721	0.658	0.549	0.683	0.405	0.347	0.19
NCI-H650	0.682	0.719	0.685	0.697	0.674	0.986	1.1	0.872	1.22	0.899	0.533	0.552	0.561	0.528	0.459	1.33	1.08	1.19	1.09
NCI-H1651	0.751	0.681	0.636	0.639	0.599	0.505	0.481	0.486	0.428	0.386	0.804	0.714	0.62	0.596	0.658	0.779	0.899	0.975	0.828
NCI-H2405	0.741	0.783	0.632	0.736	0.645	0.628	0.722	0.744	0.748	0.657	0.64	0.711	0.624	0.612	0.619	0.737	0.472	0.427	0.277
LU99A	0.28	0.26	0.234	0.295	0.321	0.343	0.391	0.251	0.367	0.307	0.288	0.321	0.316	0.338	0.295	0.551	0.501	0.489	0.573
H3255	0.564	0.525	0.615	0.591	0.745	0.875	0.999	0.944	0.901	0.782	0.577	0.541	0.493	0.506	0.668	0.596	0.678	0.573	0.556
NCI-H1993	0.588	0.561	0.614	0.58	0.607	0.635	0.787	0.651	0.816	0.763	0.562	0.505	0.519	0.486	0.605	0.681	0.584	0.769	0.702
NCI-H322M	0.495	0.477	0.477	0.555	0.493	0.606	0.608	0.424	0.591	0.649	0.667	0.575	0.605	0.564	0.48	0.643	0.549	0.563	0.532
NCI-H460	0.473	0.387	0.126	0.266	0.25	0.754	0.653	0.619	0.669	0.566	0.681	0.592	0.585	0.62	0.515	0.464	0.21	0.172	0.137
